Where two headings read alike, the source gives them in different places.
How the values were obtained:
OsHMA3 = assay: Expression level of OsHMA3 in rice suspension cells, real-time fluorescence quantitative PCR; type: cell-based, Oryza sativa L. Japonica; conditions: 24 h with treatment, then 10 μM cadmium and 5 μM arsenic for 24 h, CK 1.47 ± 0.07
Protocol: (§1) Method of culturing rice suspension cells (Oryza sativa L. Japonica): Selecting mature and plump seeds of Japanese rice Nipponbare, and disinfecting them with 70% alcohol by volume or 30% sodium hypochlorite by mass; evenly sowing the seeds with tweezers onto a plate containing a solid medium, and then placing the plate into an incubator to culture in the dark at a culture temperature of 25° C.; after a period of time, removing hypocotyls from the seeds with tweezers, and culturing the hypocotyls in another solid medium to obtain callus; crushing 10 g of the callus, adding it to a triangular flask containing a liquid medium (50 mL), and culturing in a shaker at 28° C. for about one month to obtain rice suspension cells.
(§2) The basic components of the above solid medium and liquid medium are consistent, both being an MS medium. The solid medium was prepared by adding agar to the liquid medium (adding […] of the liquid medium, and then heating, melting, cooling and solidifying to obtain the solid medium). The basic formula was as follows: […]
(§3) In order to study the effect of the ferrous modified selenium sol on the expression level of the cadmium transporter in rice suspension cells, the following treatments were performed on the rice suspension cells: […]

OsLsi1 = assay: Expression level of OsLsi1 in rice suspension cells, real-time fluorescence quantitative PCR; type: cell-based, Oryza sativa L. Japonica; conditions: 24 h with treatment, then 10 μM cadmium and 5 μM arsenic for 24 h, CK 4.74 ± 0.11
Protocol: as §1, §2, §3

OsLCT1 = assay: Expression level of OsLCT1 in rice suspension cells, real-time fluorescence quantitative PCR; type: cell-based, Oryza sativa L. Japonica; conditions: 24 h with treatment, then 10 μM cadmium and 5 μM arsenic for 24 h, CK 4.62 ± 0.10
Protocol: as §1, §2, §3

rice suspension cells [1] = assay: Content of cadmium in rice suspension cells; type: cell-based, Oryza sativa L. Japonica; conditions: for Cd Content: 10 μM cadmium and 5 μM arsenic for 24 h, CK 12.8 ± 0.9; for Cd reduction ratio (inhibition rate of cadmium): compared with the blank control
Protocol: as §1, §2
(§4) Ferrous sulfate, sodium selenite and the ferrous modified selenium sol prepared in Examples 1, 2 and 3 were added to a rice suspension cell system, respectively, so that in the final system the ferrous sulfate solution containing the iron element at a mass-volume ratio of 0.05% (T1), the sodium selenite solution containing the selenium element at a mass-volume ratio of 0.025% (T2), and the ferrous modified selenium sol prepared in Example 1 (T3) were diluted 50 times, the ferrous modified selenium sol prepared in Example 2 was diluted 150 times (T4), and the ferrous modified selenium sol prepared in Example 3 was diluted 100 times (T5). The rice suspension cells without any treatment were used as a control (CK). After 24 h of culture, cadmium and arsenic were added to the culture system, so that the final concentrations of cadmium and arsenic were 10 μM and 5 μM, respectively. With the temperature kept constant at 28° C. in a shaker, the rice cells of each treatment were continuously cultured for 24 h and then collected. RNA was extracted from the rice cells and reversely transcribed, and the expression levels of the genes OsNramp5, OsHMA3, OsLCT1, OsLsi1 and OsLsi2 were detected.
(§5) The rice cells obtained by the above respective treatments were collected and washed centrifugally with ultrapure water, and then the contents of cadmium and arsenic in the cells were measured.

rice [2] = assay: Field test of foliar barriers: content of inorganic arsenic in rice; type: in vivo, rice variety Huang-Li-Zhan; conditions: sprayed once at tillering stage at 100 L/mu (T1, T4, T5); for content of inorganic arsenic in rice: control 0.280 mg/kg
Excerpt: (§6) The surface soil (0-30 cm) of a rice field polluted by heavy metals located in Boluo Town, Huizhou City, Guangdong Province was collected and analyzed from April to July of 2016. […] The tested rice variety was Huang-Li-Zhan.
(§7) There were the following six treatments in the experiment: (1) Blank control (CK): An equal amount of clear water was sprayed. (2) Treatment 1 (T1): The silica sol foliar barrier (prepared in Example 3) was sprayed once on the leaves at the tillering stage of rice when the foliar barrier was diluted 50 times and sprayed at 100 L/mu. (3) Treatment 2 (T2): The selenium sol foliar barrier (prepared in Example 3) was sprayed twice on the leaves, the first at the tillering stage of rice when the foliar barrier was diluted 100 times and sprayed at 50 L/mu, the second at the heading stage of rice when the foliar barrier was diluted 100 times and sprayed at 150 L/mu. (4) Treatment 3 (T3): The selenium sol foliar barrier (prepared in Example 3) was sprayed three times on the leaves, the first at the tillering stage of rice when the foliar barrier was diluted 100 times and sprayed at 80 L/mu, the second at the heading stage of rice when the foliar barrier was diluted 100 times and sprayed at 120 L/mu, the third at the filling stage of rice when the foliar barrier was diluted 250 times and sprayed at 150 L/mu. (5) Treatment 4 (T4): The ferrous sulfate solution containing the iron element at a mass-volume ratio of 0.1% was sprayed on the leaves at the tillering stage of rice at 100 L/mu. (6) Treatment 5 (T5): The sodium selenite solution containing the selenium element at a mass-volume ratio of 0.05% was sprayed on the leaves at the tillering stage of rice at 100 L/mu.
(§8) It was selected that the above foliar preparations were sprayed at 4-6 pm on a sunny day; when sprayed, the atomized droplets were controlled to be smaller than 1000 microns, and sprayed uniformly on both sides of the rice leaves. Each treatment was repeated four times, randomly arranged. There were totally 36 test plots, each plot having an area of 5×6=30 m^2 to ensure independent drainage and irrigation.

rice [3] = assay: Field test of foliar barriers: content of cadmium in rice; type: in vivo, rice variety Huang-Li-Zhan; conditions: for content of cadmium in rice decreased by, compared with the control (CK) / content of cadmium in rice: sprayed once at tillering stage at 100 L/mu (T1, T4, T5); for content of cadmium in rice: control 0.308 mg/kg
Excerpt: as §6, §7, §8

OsNramp5 = assay: Expression level of OsNramp5 in rice suspension cells, real-time fluorescence quantitative PCR; type: cell-based, Oryza sativa L. Japonica; conditions: 24 h with treatment, then 10 μM cadmium and 5 μM arsenic for 24 h, CK 4.84 ± 0.15
Protocol: as §1, §2, §3

OsLsi2 = assay: Expression level of OsLsi2 in rice suspension cells, real-time fluorescence quantitative PCR; type: cell-based, Oryza sativa L. Japonica; conditions: 24 h with treatment, then 10 μM cadmium and 5 μM arsenic for 24 h, CK 4.91 ± 0.21
Protocol: as §1, §2, §3

rice [4] = type: in vivo, rice variety Huang-Li-Zhan
Excerpt: as §6, §7, §8

rice suspension cells [5] = assay: Content of arsenic in rice suspension cells; type: cell-based, Oryza sativa L. Japonica; conditions: for As content: 10 μM cadmium and 5 μM arsenic for 24 h, CK 7.12 ± 0.82; for As reduction ratio (inhibition rate of arsenic): compared with the blank control
Protocol: as §1, §2, §4, §5

Row | Structure (SMILES) | OsHMA3 expression (OsHMA3) | OsLsi1 expression (OsLsi1) | OsLCT1 expression (OsLCT1) | Cd Content (rice suspension cells [1]) | Cd reduction ratio (inhibition rate of cadmium) (rice suspension cells [1]) | content of inorganic arsenic in rice decreased by, compared with the control (CK) (rice [2]) | content of inorganic arsenic in rice (rice [2]) | content of cadmium in rice decreased by, compared with the control (CK) (rice [3]) | content of cadmium in rice (rice [3]) | OsNramp5 expression (OsNramp5) | OsLsi2 expression (OsLsi2) | As content (rice suspension cells [5]) | As reduction ratio (inhibition rate of arsenic) (rice suspension cells [5]) | also measured
1 | O=S(=O)([O-])[O-].[Fe+2] [ferrous sulfate] | 2.53 ± 0.12 | 4.15 ± 0.16 | 3.82 ± 0.11 | 8.3 ± 0.6 µg/g | 35.2% | 18.7% | 0.255 mg/kg | 18.8% | 0.250 mg/kg | 3.15 ± 0.16 | 4.78 ± 0.27 | 6.89 ± 0.71 µg/g | 3.2% | cadmium and inorganic arsenic content of the treated rice against the food hygiene standard (rice [3]; sol in regimens T1, T2 and T3, ferrous sulfate T4, sodium selenite T5): still exceeded the food hygiene standard; Dry production per mu (rice [4]; in vivo): 410 kg; Plot average yield (rice [4]; in vivo): 30.04abc kg; Plot yield I (rice [4]; in vivo): 29.4 kg; Plot yield II (rice [4]; in vivo): 30.75 kg; Plot yield III (rice [4]; in vivo): 30.3 kg; Wet production per mu (rice [4]; in vivo): 668 kg; Yield increase ratio (rice [4]; in vivo): 6.4%; Plot yield IV (rice [4]; in vivo, iv): 29.7 kg
2 | O=[Se](O)O [sodium selenite] | 2.15 ± 0.14 | 3.11 ± 0.17 | 4.42 ± 0.14 | 9.1 ± 1.2 µg/g | 28.9% | 16.8% | 0.232 mg/kg | 10.1% | 0.276 mg/kg | 3.85 ± 0.21 | 3.07 ± 0.11 | 4.96 ± 0.53 µg/g | 30.3% | yield of rice decreased by (rice [4]; field, T5: sprayed once at tillering stage at 100 L/mu, 0.05% Se, compared with CK): 3.8%; Plot average yield (rice [4]; field, sprayed once at tillering stage at 100 L/mu (T1, T4, T5), CK 28.05): 26.95c kg; Dry production per mu (rice [4]; field, sprayed once at tillering stage at 100 L/mu (T1, T4, T5), CK 386): 371 kg; Wet production per mu (rice [4]; field, sprayed once at tillering stage at 100 L/mu (T1, T4, T5), CK 623): 599 kg; Yield increase ratio (rice [4]; field, sprayed once at tillering stage at 100 L/mu (T1, T4, T5), compared with CK): −3.8%; Plot yield II (rice [4]; field, sprayed once at tillering stage at 100 L/mu (T1, T4, T5), plot II, CK 30.15): 27.15 kg; Plot yield III (rice [4]; field, sprayed once at tillering stage at 100 L/mu (T1, T4, T5), plot III, CK 28.95): 29.12 kg; Plot yield IV (rice [4]; field, sprayed once at tillering stage at 100 L/mu (T1, T4, T5), plot IV, CK 24.3): 26.13 kg; Plot yield I (rice [4]; field, sprayed once on leaves at tillering stage at 100 L/mu (T1: sol diluted 50 times; T4: ferrous sulfate 0.1% Fe; T5: sodium selenite 0.05% Se), plot I, 30 m^2, CK 28.65): 25.41 kg

From patent US10899631B2, “Ferrous modified selenium sol for inhibiting accumulation of cadmium and arsenic in rice and preparation method and application thereof” (priority 2018, dated 2021)
